Laboratory results taken from patent US20230000852A1, “Treatment of Dermal Cytokine Storm Syndromes” (Bridge Pharma, Inc., priority 2021, published 2023).
Where a name gives a salt, the structure may show the parent alone.

Experiments:
INF-γ = experiment: PHA-induced INF-γ release from human leucocytes (buffy coats); assay type: cell-based; settings: Leucocyte, 10 uM, 30 min pre-incubation, PHA 5 μg/ml 16 hours
Method: (§1) The objective of this study was to assess the ability of norketotifen to inhibit cytokine release from stimulated human leucocytes.
(§2) The study was conducted in two phases. The first phase included optimization of the test methodology and including dose-range finding studies, using buffy coats from 3 human donors, stimulated with phytohemagglutinin (PHA). Following optimization of the test conditions, a final protocol was issued. In the ensuing Main Study, white blood cells (buffy coats) from 5 healthy human donors were stimulated with PHA, 5 μg/ml. The concentrations of the test article and the duration of exposure were optimized to obtain acceptable dose-response ratios. Thus, the inhibitory effects of three concentrations of NK and one concentration of ketotifen were evaluated in the Main Study. The buffy coats containing white blood cells from 5 male human donors were resuspended in assay media and were pre-incubated for 30 min with either vehicle/saline, ketotifen 4.3 μg/ml (10 μM) and norketotifen 0.4 μg/ml, 4.1 μg/ml and 41 μg/ml (1.0; 10 and 100 μM). Following these preincubations, the white blood cells were stimulated for 16 hours with PHA, 5 μg/ml. The cell system supernatants were then harvested and stored frozen pending analyses.
(§3) The concentration of the test articles had to be high in this ex vivo study since the test kit used a high concentration of the agonist PHA (5 μg/ml) and a long exposure time (16 hrs).

IL-10 = experiment: PHA-induced IL-10 release from human leucocytes (buffy coats); assay type: cell-based; settings: Leucocyte, 10 uM, 30 min pre-incubation, PHA 5 μg/ml 16 hours
Method: as §1, §2, §3

IL-1β = experiment: PHA-induced IL-1β release from human leucocytes (buffy coats); assay type: cell-based; settings: Leucocyte, 10 uM, 30 min pre-incubation, PHA 5 μg/ml 16 hours
Method: as §1, §2, §3

IL-6 = experiment: PHA-induced IL-6 release from human leucocytes (buffy coats); assay type: cell-based; settings: Leucocyte, 10 uM, 30 min pre-incubation, PHA 5 μg/ml 16 hours
Method: as §1, §2, §3

TNFα = experiment: PHA-induced TNFα release from human leucocytes (buffy coats); assay type: cell-based; settings: Leucocyte, 10 uM, 30 min pre-incubation, PHA 5 μg/ml 16 hours
Method: as §1, §2, §3

[1] = tested on: human leucocytes (buffy coats); experiment: Cytokine and chemokine release from stimulated human leucocytes, overall; assay type: cell-based; settings: PHA 5 μg/ml, 16 hours
Method: as §1
as §2, with “analyses. […]” for “analyses.”

IL-4 = experiment: PHA-induced IL-4 release from human leucocytes (buffy coats); assay type: cell-based; settings: Leucocyte, 10 uM, 30 min pre-incubation, PHA 5 μg/ml 16 hours
Method: as §1, §2, §3

IL-2 = experiment: PHA-induced IL-2 release from human leucocytes (buffy coats); assay type: cell-based; settings: Leucocyte, 10 uM, 30 min pre-incubation, PHA 5 μg/ml 16 hours
Method: as §1, §2, §3

IL-13 = experiment: PHA-induced IL-13 release from human leucocytes (buffy coats); assay type: cell-based; settings: Leucocyte, 10 uM, 30 min pre-incubation, PHA 5 μg/ml 16 hours
Method: as §1, §2, §3

IL-8 = experiment: PHA-induced IL-8 release from human leucocytes (buffy coats); assay type: cell-based; settings: Leucocyte, 10 uM, 30 min pre-incubation, PHA 5 μg/ml 16 hours
Method: as §1, §2, §3

[2] = tested on: IL31-induced (SC) pruritus; experiment: IL-31-induced pruritus in mice; assay type: in vivo; settings: for Pruritic Bouts Mean ± SEM: 10 mg/kg oral 60 minutes before murine IL31 1.0 μg/30 gram SC, counted for 120 min, N 8; for Protection: 10 mg/kg oral 60 minutes before murine IL31 SC, vs vehicle
Method: To determine if NK inhibits IL31-induced pruritus in mice. Studies have now been performed, using murine IL31 as a pruritogen. Mice were dosed orally with a test article exactly 60 minutes before murine IL31 at a dose of 1.0 μg/30 gram body weight was injected subcutaneously into a previously depilated area on the rostral part of the back of mice. IL31 was dissolved in phosphate buffered saline (PBS) with 0.1% bovine serum albumin (BSA). The injected volume was 0.1 ml/mouse. The bouts of scratching were counted for 120 min, starting 30 min after the injection of IL31. The bouts of scratching were counted by trained laboratory personnel who were unaware of the pretreatment of the animals. Oclacitinib (Apoquel®) is a Janus kinase inhibitor that is the worldwide market leader for oral treatment of atopic dermatitis in dogs.

[3] = tested on: shaved skin of Gottingen minipigs; experiment: Skin irritation study in Göttingen mini pigs; assay type: in vivo, Göttingen minipigs; settings: dermal once daily for four consecutive days
Method: To assess possible skin irritation following repeated dermal application of racemic norketotifen as a hydrogen fumarate salt (NK-HF) to Gottingen Minipigs.
Standard creamy polyethylene-glycol (PEG400/PEG4000; herein called PEG) formulations containing 0% (vehicle control), 5% or 10% of RS-norketotifen hydrogen fumarate (NK-HF) were prepared and applied once daily for four consecutive days to three marked areas (3 inches×3 inches) of the shaved skin of Gottingen minipigs pigs (2M+2F, 7-8 months; 9.7-11.6 kg). The volumes used for each application were 3.5 mL). Four animals were used in this study. The number of animals was intended to satisfy regulatory guidelines, to meet general scientific principles and to meet Bridge Pharma's animal-sparing commitments. The vehicle and the test articles were applied once daily for four consecutive days, and erythema (redness), edema (swelling) and eschar (scab) were assessed by the Study Director, who personally assessed and scored the appearance of the skin before the daily cream applications and four hours thereafter on Days 1 through 4. Additional inspections and scorings were performed on Day 5, twenty-four hours after the last (Day 4) applications of the vehicle and test articles.

[4] = Dermal and plasma concentrations of NK after oral dosing to dogs; assay type: in vivo; settings: for AUC∞ Plasma / MRT Plasma / T1/2 Plasma / AUC∞ Skin / MRT Skin / T1/2 Skin: oral S-NK 8.0 mg/kg/day for 28 days, dogs (N = 5)
Method: The purpose was to determine drug concentrations and calculate pharmacokinetics in the skin and plasma of dogs during and following daily oral administration of S-NK-HF (the S-isomer of norketotifen hydrogen fumarate) for four weeks.
Five male beagle dogs, weighing 11.2-13.9 kg (2-4 years old) were included in the study. All animals were administered p.o. doses of the test article 8.0 mg/kg/day as a hydrogen fumarate salt, equal to 5.6 mg/kg/day of the free base. A single isomer of NK was used, since an objective of this study was also to assess the racemization of the NK isomers. The animals were dosed once daily for four weeks followed by daily observations and tissue sampling for an additional two-week washout period.
Multiple plasma samples and skin biopsies were taken from each dog on Day 1 and Day 28 of drug administration. The plasma and skin samplings were performed at pre-dose, and at 2, 6, 12, and 24 hours post-dose. Plasma and skin samples were also taken intermittently at predetermined intervals during the 28-days dosing period and up to the last day of the study, which was Day 42. Blood samples were taken from v. cephalica antebrachii. Skin biopsies were taken from the area between the mid ventral to lateral abdominal areas, using a 6 mm skin biopsy punch. Subcutaneous fat deposits were carefully trimmed from the skin samples and the skin samples were then weighed. All plasma and skin samples were analyzed using LC/MS/MS methodology.

SMILES: CN1CCC(=C2c3ccccc3CC(=O)c3sccc32)CC1 [Ketotifen, ketotifen, reference compound]
- inhibition at 10 µM (INF-γ): 0%
- inhibition at 10 µM (IL-10): 0%
- inhibition at 10 µM (IL-1β): 0%
- inhibition at 10 µM (IL-6): 0%
- inhibition at 10 µM (TNFα): 0%
- Inhibition of release of cytokines and chemokines from human white blood cells (in words) [1]: No statistically significant inhibition
- inhibition at 10 µM (IL-4): 0%
- inhibition at 10 µM (IL-2): 0%
- inhibition at 10 µM (IL-13): 0%
- inhibition at 10 µM (IL-8): 20%

SMILES: O=C(O)C=CC(=O)O.O=C1Cc2ccccc2C(=C2CCNCC2)c2ccsc21 [NK-HF, RS-norketotifen hydrogen fumarate]
- Pruritic Bouts Mean ± SEM [2]: 93 ± 10
- Protection [2]: 54%
- Skin irritation (erythema, edema, eschar) ([3]; 5% in creamy PEG formulation): did not induce any irritation
- Skin irritation (erythema, edema, eschar) ([3]; 10% in creamy PEG formulation): did not induce any irritation

SMILES: CNS(=O)(=O)C[C@H]1CC[C@H](N(C)c2ncnc3[nH]ccc23)CC1 [Oclacitinib maleate, Oclacitinib, reference compound]
- Pruritic Bouts Mean ± SEM [2]: 116 ± 29
- Protection [2]: 43%

SMILES: O=C(O)/C=C/C(=O)O.O=C1Cc2ccccc2C(=C2CCNCC2)c2ccsc21 [R-NK, R-norketotifen]
- AUC∞ Plasma [4]: 1658 ng*hr/mL or g
- MRT Plasma [4]: 14.1 h
- T1/2 Plasma [4]: 7.7 h
- AUC∞ Skin [4]: 20376 ng*hr/mL or g
- MRT Skin [4]: 159.1 h
- T1/2 Skin [4]: 157.0 h

SMILES: O=C1Cc2ccccc2C(=C2CCNCC2)c2ccsc21 [S-NK, S-norketotifen]
- Racemization after oral administration of the single isomer ([4]; dogs, oral): RS-norketotifen was rapidly formed
- AUC∞ Plasma [4]: 1627 ng*hr/mL or g
- MRT Plasma [4]: 11.3 h
- T1/2 Plasma [4]: 10.9 h
- AUC∞ Skin [4]: 25710 ng*hr/mL or g
- MRT Skin [4]: 159.0 h
- T1/2 Skin [4]: 162.7 h
